Results as given in patent publication US20250009676A1, “COMPOSITIONS AND METHODS FOR LEVODOPA DELIVERY” (PURDUE PHARMA L.P., priority 2021, published 2025).
“Also recorded” adds a separate entry of the source.

Columns and labels:
[1] = Brain levels of L-DOPA and dopamine after intranasal dosing; conditions: rat, 1.2 mg/kg, 2 hours post-dosing
From the text: All brain levels are reported after subtraction of basal levels.

[2] = Plasma pharmacokinetics of L-DOPA and dopamine after intranasal dosing; conditions: rat, 1.2 mg/kg
[3] = after intranasal L-DOPA administration, Nedorubov et al; cited from earlier work

## N[C@@H](Cc1ccc(O)c(O)c1)C(=O)O [crystal L-DOPA, levodopa]
[1]
  dopamine levels in the brain above basal levels (in words): below the LOQ; also recorded: below the level of detection
[2]; GCPQ-L-DOPA: one rat, t=0.083 hours
  dopamine plasma concentration, single animals with a quantifiable value: 25 to 29 ng/mL
[2]; limit of quantification 25 ng/ml, nearly all samples
  dopamine plasma concentration: below the limit of quantification
[2]; plasma
  maximum plasma concentration of L-DOPA: 53.5 ± 22.7 ng/mL
  time of maximum L-DOPA plasma concentration (Tmax): 15 min
[3]
  Cmax for L-DOPA in rat brain tissue: 16.94±1.52
